Experimental data from patent US11000485B2, “Substituted hydroxystilbenes as AhR and Nrf2 modulators and their therapeutic applications” (Resolvex Pharmaceuticals Inc., priority 2017, dated 2021).

Columns and labels:
Jurkat cells [1] = assay: Cell viability (MTS); type: cell-based; settings: 48 hours
Protocol: (§1) Cells were cultured in RPMI-1640 containing 10% FBS (Jurkat and THP-1) or DMEM containing 10% FBS (A549 and MDA-MB-435). On Day 1, 1-5×10^4 cells per well in 100 μL of the cell culture medium containing 0.5% FBS were seeded into a 96-well flat bottom plate. On Day 2, the test compounds were added to the culture at different concentrations in triplicates. The controls include triplicates of no compound treatment and cell culture medium without cells. The cells were incubated at 5% CO2, 37° C. for 48 hours. On Day 4, MTS reagent was added to each well and incubated at 37° C. for 4 hours. The absorbance was read at 490 nm. The percentage of inhibition was calculated using the formula: [1-(experiment reading-background reading)/(negative control reading-background reading)]×100.

MDA-MB-435 cells [2] = assay: Cell viability (MTS); type: cell-based
Protocol: as §1

THP1 cells = assay: Cell viability (MTS); type: cell-based
Protocol: as §1

[3] = target: T1, recombinant human PDE4B1 enzyme (Homo sapiens, UniProt Q07343); assay: PDE4B1 radiometric enzyme assay; type: biochemical; settings: for Inhibitory activity on PDE4B1 enzyme: 1 μM cAMP
T1 construct: host or cells: baculoviral system
Protocol: Assays were performed using recombinant human PDE4B1 enzyme expressed in a baculoviral system. […] The reactions were performed at 1 μM of cAMP. The test articles were each tested at 0.2 μM and 20 μM in triplicates.

A549 cells = assay: Cell viability (MTS); type: cell-based; settings: Homo sapiens, A549, 48 hours
Protocol: as §1

Jurkat cells [4] = assay: Cell proliferation ([3H]-thymidine); type: cell-based; settings: Homo sapiens, Jurkat, 48 hours, read-out: Anti-proliferation IC50, Jurkat
Protocol: (§2) Cells were cultured in RPMI-1640 containing 10% FBS (Jurkat) or DMEM containing 10% FBS (MDA-MB-435). On Day 1, 1×10^4 cells were seeded into one well of a 96-well white ISOPLATE™ with 0.5% FBS. The cells were cultured at 5% CO2, 37° C. overnight. On Day 2, the diluted test compounds were added into each well in a total volume of 100 μL of cell culture medium. For each cell line were set up three wells containing cells and only diluted DMSO as a negative (vehicle) control, and three wells without cells but containing the same volume and type of cell culture medium as background control. The cells were incubated at 5% CO2, 37° C. for 24 hours. On Day 3, 1 μL of [^3H]-thymidine was added into each well and incubation at 5% CO2, 37° C. was continued for another 24 hours. On Day 4, 30 μL of 50% TCA was added into each well and was incubated at 4° C. for 4 hours. Plates were washed with ddH2O four times and then air dried for 30 minutes followed by the addition of 100 μL of scintillation fluid into each well. The radioactivity was read using MICROBETA TRILUX™. The percentage of inhibition was calculated using the formula [1-(experiment reading-background reading)/(negative control reading-background reading)]×100.

MDA-MB-435 cells [5] = assay: Cell proliferation ([3H]-thymidine); type: cell-based; settings: Homo sapiens, MDA-MB-435, 48 hours, read-out: Anti-proliferation IC50, MDA-MB-435
Protocol: as §2

AMPK (A1/B1/G1) = AMPK (A1/B1/G1) (Homo sapiens, UniProt Q13131); assay: Kinase profiling, recombinant kinase; type: biochemical; settings: 5 uM ATP
AKT1 = AKT1 (Homo sapiens, UniProt P31749); assay: Kinase profiling, recombinant kinase; type: biochemical; settings: 5 uM ATP
Protocol: (§3) Kinase profiling was conducted using different recombinant kinase targets against the compounds at 5 uM ATP. The kinases tested included AKT1 (RAC-alpha serine/threonine-protein kinas 1), JAK2, JAK3, p38α, p38β (p38 mitogen-activated protein kinase beta), GSK3β, SYK (Spleen tyrosine kinase), LCK, IKKα and IKKβ and CLK4. The test compounds were tested at 5 μM and 50 μM in triplicates.

CLK4 = CLK4 (Homo sapiens, UniProt Q9HAZ1); assay: Kinase profiling, recombinant kinase; type: biochemical; settings: 5 uM ATP
Protocol: as §3

GSK3 β = GSK3 β (Homo sapiens, UniProt P49841); assay: Kinase profiling, recombinant kinase; type: biochemical; settings: 5 uM ATP
Protocol: as §3

IKK α = IKK α (Homo sapiens, UniProt O15111); assay: Kinase profiling, recombinant kinase; type: biochemical; settings: 5 uM ATP
Protocol: as §3

IKK β = IKK β (Homo sapiens, UniProt O14920); assay: Kinase profiling, recombinant kinase; type: biochemical; settings: 5 uM ATP
Protocol: as §3

JAK2 = JAK2 (Homo sapiens, UniProt O60674); assay: Kinase profiling, recombinant kinase; type: biochemical; settings: 5 uM ATP
Protocol: as §3

JAK3 = JAK3 (Homo sapiens, UniProt P52333); assay: Kinase profiling, recombinant kinase; type: biochemical; settings: 5 uM ATP
Protocol: as §3

LCK = LCK (Homo sapiens, UniProt P06239); assay: Kinase profiling, recombinant kinase; type: biochemical; settings: 5 uM ATP
Protocol: as §3

SYK = SYK (Homo sapiens, UniProt P43405); assay: Kinase profiling, recombinant kinase; type: biochemical; settings: 5 uM ATP
Protocol: as §3

p38 α = p38 α (Homo sapiens, UniProt Q16539); assay: Kinase profiling, recombinant kinase; type: biochemical; settings: 5 uM ATP
Protocol: as §3

p38 β = p38 β (Homo sapiens, UniProt Q15759); assay: Kinase profiling, recombinant kinase; type: biochemical; settings: 5 uM ATP
Protocol: as §3

[6] = test system: dextran sodium sulphate (DSS) induced model of inflammatory bowel disease (IBD)/colitis; assay: DSS induced model of IBD/colitis; type: in vivo, female Balb/c mice; settings: Day 0 to Day 8, DSS control group 24.2+5.7, normal control 1.9+2.4
Protocol: The efficacy of Compound 2 was tested in a dextran sodium sulphate (DSS) induced model of inflammatory bowel disease (IBD)/colitis in female Balb/c mice. Rolipram was used as a positive control in this experiment. Colitis was induced in the mice by providing drinking water containing DSS (3.5%, M. Wt. 30,000-50,000) from Day 0 to Day 8. The test compounds were administered as per their respective groups at specific dose levels starting from Day 0 through to Day 8. […] For dosing, Compound 2 was dissolved in vehicle (1.5% Cremophor EL) at 3 mg/mL and 1 mg/mL for the 30 and 10 mg/kg doses, respectively. […] All doses were administered by oral gavage.
There was a considerable increase in disease activity index (DAI) (cumulative scores of body weight, stool consistency and rectal bleeding) in the DSS control group (24.2+5.7) when compared to normal control group (1.9+2.4) which indicated very good disease induction.

[7] = target: T2, Aryl Hydrocarbon Receptor (AhR) (Homo sapiens, UniProt P35869); assay: AhR-CYP1A1-bla LS-180 beta-lactamase reporter assay; type: cell-based; settings: AhR-CYP1A1-bla LS-180 cells, 24 hours; read-out: EC50, AhR activation
T2 construct: host or cells: AhR-CYP1A1-bla LS-180
Protocol: This assay was performed using Invitrogen's CellSensor® cell line AhR-CYP1A1-bla LS-180 with GeneBLAzer® Beta-lactamase (bla) Reporter Technology as the detection method. When the AhR-CYP1A1 pathway is activated or inhibited, Beta-lactamase reporter activity is modulated and is measured quantitatively and selectively with the LiveBLAzer™-FRET B/G Loading Substrate.
Briefly, the AhR-CYP1A1-bla LS-180 cells were grown in Growth Media (MEM, 10% FBS, 0.1 mM NEAA, 1 mM Sodium Pyruvate). Cells were dissociated and resuspended in Assay Media (OPTI-MEM, 0.5% dialyzed FBS, 0.1 mM NEAA, 1 mM Sodium Pyruvate). Around 2×10^4 cells in a volume of 32 μL of assay media was added to each well of a 384 well Poly-D-Lysine assay plate. After incubation for 16 hours at 37° C. in a humidified incubator, 4 μL of a 10× serial dilution of test compounds were added to appropriate wells of the plate. The plate was incubated for 24 hours at 37° C. For the reporter activity assay, 8 μL of 1 μM Substrate was added to each well and the plate was incubated for 2 hours at room temperature. The plate was read on a fluorescence plate reader.

ICAM-1 = assay: BioMap BF4T lung epithelium inflammation system; type: cell-based; settings: stimulated human primary bronchial epithelial cells, 24 hours, ELISA
Protocol: (§4) The compounds were assayed in the Eurofin's BioMap system (BF4T Cells) which models Th2-type lung inflammation, an environment that promotes the recruitment of eosinophils, mast cells, neutrophils, and basophils as well as effector memory T cells. This system is relevant for allergy and asthma, pulmonary fibrosis, as well as chronic obstructive pulmonary disorder (COPD) exacerbations. The human primary bronchial epithelial cells were cultured and stimulated to induce the inflammatory factors responsible for the pathogenesis of various inflammatory diseases in the lung. The test compounds were added to the in vitro model culture system and incubated for 24 hours. The supernatants were collected and assayed for the protein production of various molecules using ELISA assays. The biomarkers assayed included MCP-1, Eotaxin-3, VCAM-1, ICAM-1, CD90, IL-8, IL1α, Keratin 8/18, MMP1, MMP-3, MMP-9, PAI-1, SRB, tPA, and uPA.

IL-1α = assay: BioMap BF4T lung epithelium inflammation system; type: cell-based; settings: stimulated human primary bronchial epithelial cells, 24 hours, ELISA
Protocol: as §4

IL-8 = assay: BioMap BF4T lung epithelium inflammation system; type: cell-based; settings: stimulated human primary bronchial epithelial cells, 24 hours, ELISA
Protocol: as §4

VCAM-1 = assay: BioMap BF4T lung epithelium inflammation system; type: cell-based; settings: stimulated human primary bronchial epithelial cells, 24 hours, ELISA
Protocol: as §4

[8] = read-out: Inhibitory activity on PDE4B1 enzyme

T1 sequence (Q07343 whole entry): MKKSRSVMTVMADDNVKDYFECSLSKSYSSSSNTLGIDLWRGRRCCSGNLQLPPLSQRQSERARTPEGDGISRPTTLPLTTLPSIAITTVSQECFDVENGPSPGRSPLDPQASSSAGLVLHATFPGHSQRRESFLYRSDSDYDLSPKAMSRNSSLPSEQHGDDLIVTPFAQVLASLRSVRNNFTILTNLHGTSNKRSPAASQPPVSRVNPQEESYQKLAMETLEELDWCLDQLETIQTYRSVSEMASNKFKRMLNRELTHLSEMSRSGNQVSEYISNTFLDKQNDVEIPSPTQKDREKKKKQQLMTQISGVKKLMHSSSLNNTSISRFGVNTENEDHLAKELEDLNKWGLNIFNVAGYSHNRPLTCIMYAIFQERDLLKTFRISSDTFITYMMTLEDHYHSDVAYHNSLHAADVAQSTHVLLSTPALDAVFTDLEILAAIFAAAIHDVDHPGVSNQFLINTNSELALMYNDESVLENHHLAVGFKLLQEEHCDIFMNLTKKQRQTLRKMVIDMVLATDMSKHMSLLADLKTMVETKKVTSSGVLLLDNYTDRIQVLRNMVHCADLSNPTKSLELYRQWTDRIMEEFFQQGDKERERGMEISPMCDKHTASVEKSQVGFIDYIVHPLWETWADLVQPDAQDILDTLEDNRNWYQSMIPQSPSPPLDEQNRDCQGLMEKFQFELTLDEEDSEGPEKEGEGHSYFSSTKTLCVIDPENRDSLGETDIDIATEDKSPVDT
LCK, sequence (P06239 whole entry, species assumed): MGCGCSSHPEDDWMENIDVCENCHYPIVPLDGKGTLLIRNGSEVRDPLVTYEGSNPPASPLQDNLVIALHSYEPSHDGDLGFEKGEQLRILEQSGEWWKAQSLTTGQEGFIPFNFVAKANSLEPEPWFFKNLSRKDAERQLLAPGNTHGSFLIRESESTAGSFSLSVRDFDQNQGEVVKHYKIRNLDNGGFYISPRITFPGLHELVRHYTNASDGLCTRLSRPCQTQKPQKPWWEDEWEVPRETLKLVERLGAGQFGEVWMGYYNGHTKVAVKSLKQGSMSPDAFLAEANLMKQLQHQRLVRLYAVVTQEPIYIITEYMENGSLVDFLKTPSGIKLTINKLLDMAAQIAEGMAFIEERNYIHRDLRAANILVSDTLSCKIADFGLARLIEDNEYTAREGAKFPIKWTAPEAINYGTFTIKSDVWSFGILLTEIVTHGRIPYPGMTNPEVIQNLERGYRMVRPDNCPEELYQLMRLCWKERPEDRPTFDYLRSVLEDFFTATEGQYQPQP
AMPK (A1/B1/G1), sequence (Q13131 whole entry): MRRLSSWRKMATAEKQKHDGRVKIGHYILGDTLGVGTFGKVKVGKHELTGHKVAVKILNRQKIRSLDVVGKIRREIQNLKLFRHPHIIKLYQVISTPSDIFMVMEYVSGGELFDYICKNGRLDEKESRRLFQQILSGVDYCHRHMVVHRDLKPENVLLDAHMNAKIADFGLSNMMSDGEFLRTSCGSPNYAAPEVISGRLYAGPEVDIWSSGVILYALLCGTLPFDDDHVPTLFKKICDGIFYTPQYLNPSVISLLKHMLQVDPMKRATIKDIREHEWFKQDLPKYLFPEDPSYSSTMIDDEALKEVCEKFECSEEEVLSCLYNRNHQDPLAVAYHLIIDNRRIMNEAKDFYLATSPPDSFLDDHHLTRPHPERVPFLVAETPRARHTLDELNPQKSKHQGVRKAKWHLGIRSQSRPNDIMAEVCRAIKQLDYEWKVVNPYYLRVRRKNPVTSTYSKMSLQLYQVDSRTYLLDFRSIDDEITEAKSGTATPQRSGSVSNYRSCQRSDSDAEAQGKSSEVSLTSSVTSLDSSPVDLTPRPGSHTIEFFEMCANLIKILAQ
AMPK (A1/B1/G1), sequence (Q9Y478 whole entry partner): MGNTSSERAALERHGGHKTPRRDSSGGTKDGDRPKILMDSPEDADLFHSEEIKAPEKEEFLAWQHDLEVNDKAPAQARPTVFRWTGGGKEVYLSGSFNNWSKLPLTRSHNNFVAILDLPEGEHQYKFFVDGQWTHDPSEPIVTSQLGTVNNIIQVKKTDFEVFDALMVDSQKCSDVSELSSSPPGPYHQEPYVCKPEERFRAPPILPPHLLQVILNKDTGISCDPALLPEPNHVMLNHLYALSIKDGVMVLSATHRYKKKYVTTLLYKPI
AMPK (A1/B1/G1), sequence (P54619 whole entry partner): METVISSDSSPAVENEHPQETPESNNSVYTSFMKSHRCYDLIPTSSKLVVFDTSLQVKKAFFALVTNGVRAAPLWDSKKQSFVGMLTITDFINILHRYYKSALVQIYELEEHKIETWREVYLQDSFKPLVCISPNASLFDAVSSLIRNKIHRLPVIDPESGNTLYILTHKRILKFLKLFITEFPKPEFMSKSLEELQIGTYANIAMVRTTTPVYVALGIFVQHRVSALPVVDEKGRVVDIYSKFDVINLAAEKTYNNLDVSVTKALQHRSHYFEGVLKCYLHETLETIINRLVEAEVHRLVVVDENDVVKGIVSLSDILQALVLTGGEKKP
p38 α, sequence (Q16539 whole entry): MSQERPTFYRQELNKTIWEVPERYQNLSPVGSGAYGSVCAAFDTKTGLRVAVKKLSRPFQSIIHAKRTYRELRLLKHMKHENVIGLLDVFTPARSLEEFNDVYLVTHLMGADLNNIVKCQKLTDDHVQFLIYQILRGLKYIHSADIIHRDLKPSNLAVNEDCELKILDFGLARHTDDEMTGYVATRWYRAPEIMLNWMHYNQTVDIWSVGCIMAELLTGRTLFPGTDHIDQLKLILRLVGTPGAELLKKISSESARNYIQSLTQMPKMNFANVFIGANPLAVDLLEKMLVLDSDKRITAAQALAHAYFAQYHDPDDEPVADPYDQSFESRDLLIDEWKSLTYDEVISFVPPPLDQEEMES
JAK3, sequence (P52333 whole entry, species assumed): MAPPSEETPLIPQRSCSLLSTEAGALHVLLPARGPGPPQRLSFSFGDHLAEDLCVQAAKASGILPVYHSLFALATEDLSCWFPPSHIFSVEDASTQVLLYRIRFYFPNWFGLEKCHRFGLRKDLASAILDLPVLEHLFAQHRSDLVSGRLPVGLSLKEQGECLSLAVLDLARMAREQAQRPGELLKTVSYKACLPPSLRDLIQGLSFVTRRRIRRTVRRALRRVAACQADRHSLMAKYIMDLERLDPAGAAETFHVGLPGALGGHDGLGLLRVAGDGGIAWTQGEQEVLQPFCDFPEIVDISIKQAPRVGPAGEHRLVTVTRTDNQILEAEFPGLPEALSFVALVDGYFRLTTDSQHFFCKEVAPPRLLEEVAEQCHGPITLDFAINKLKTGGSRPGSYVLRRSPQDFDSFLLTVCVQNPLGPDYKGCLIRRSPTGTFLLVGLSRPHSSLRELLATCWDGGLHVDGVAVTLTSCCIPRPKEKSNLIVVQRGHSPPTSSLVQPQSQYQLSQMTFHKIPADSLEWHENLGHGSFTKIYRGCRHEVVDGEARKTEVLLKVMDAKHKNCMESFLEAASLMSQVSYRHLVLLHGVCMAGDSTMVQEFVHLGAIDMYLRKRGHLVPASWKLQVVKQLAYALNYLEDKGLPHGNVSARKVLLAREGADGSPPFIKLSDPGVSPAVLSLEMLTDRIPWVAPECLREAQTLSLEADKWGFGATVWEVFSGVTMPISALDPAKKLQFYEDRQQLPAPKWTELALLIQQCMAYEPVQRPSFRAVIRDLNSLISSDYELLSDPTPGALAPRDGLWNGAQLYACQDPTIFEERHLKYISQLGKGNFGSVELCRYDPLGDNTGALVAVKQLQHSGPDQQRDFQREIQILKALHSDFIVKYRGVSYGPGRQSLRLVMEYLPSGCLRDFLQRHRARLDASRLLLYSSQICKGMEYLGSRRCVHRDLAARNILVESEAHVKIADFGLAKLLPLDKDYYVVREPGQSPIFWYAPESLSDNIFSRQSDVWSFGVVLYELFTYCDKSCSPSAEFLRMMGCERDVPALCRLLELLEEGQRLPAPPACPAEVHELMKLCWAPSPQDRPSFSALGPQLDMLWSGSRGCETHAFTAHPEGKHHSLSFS
p38 β, sequence (Q15759 whole entry): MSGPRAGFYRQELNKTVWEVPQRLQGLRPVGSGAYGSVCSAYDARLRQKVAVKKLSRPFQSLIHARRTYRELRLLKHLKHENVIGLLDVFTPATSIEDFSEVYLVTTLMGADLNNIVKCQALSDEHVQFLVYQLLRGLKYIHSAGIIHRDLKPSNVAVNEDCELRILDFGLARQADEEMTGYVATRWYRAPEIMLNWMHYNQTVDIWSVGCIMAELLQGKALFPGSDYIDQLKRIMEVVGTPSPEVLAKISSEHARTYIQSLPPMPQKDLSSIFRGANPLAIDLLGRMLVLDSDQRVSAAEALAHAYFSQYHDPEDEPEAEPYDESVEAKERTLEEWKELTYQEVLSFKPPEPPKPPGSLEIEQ
CLK4, sequence (Q9HAZ1 whole entry, species assumed): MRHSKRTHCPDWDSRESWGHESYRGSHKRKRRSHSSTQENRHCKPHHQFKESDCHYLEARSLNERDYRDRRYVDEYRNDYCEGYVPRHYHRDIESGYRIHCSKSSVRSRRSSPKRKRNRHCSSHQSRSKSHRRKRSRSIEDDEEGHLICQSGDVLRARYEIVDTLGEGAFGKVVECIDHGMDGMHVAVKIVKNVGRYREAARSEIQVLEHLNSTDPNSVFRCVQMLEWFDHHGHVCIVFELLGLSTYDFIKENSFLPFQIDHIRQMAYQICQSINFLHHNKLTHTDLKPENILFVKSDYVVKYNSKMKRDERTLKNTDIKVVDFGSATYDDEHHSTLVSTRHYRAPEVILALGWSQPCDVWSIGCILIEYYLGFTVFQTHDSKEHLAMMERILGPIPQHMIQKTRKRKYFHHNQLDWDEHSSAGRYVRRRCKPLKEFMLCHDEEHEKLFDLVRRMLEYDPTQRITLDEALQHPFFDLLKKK

`Oc1cc(/C=C/c2ccc(F)cc2)ccc1C1CCCCC1` [Compound 24] was tested, and the IC50 (Jurkat cells [1]) was 2.66 µM, the IC50 (MDA-MB-435 cells [2]; 48 hours) was 0.39 µM and the IC50 (THP1 cells; 48 hours) was 7.18 µM.

`Oc1cc(/C=C/c2ccc(F)cc2)ccc1C1CCCC1` [Compound 20] was tested, and the “Inhibitory activity on PDE4B1 enzyme” value ([3]; 0.2 μM compound) was “+ (“+” is 15-30% inhibition)” and the “Inhibitory activity on PDE4B1 enzyme” value ([3]; 20 μM compound) was “+++ (“+++” is greater than 50% inhibition)”.

`CC(C)c1ccc(/C=C/c2ccc(F)cc2)cc1O` [Compound 2, 3-hydroxy-4-isopropyl-4′-fluoro-(E)-stilbene] showed an IC50 (A549 cells) of 45 µM, an IC50 (Jurkat cells [1]; Homo sapiens, Jurkat) of 7.6 µM and an IC50 (MDA-MB-435 cells [2]; Homo sapiens, MDA-MB-435, 48 hours) of 24.9 µM. For the same compound, the IC50 (THP1 cells; Homo sapiens, THP-1, 48 hours) was 3.15 µM, the IC50 (Jurkat cells [4]) was 1.67 µM and the IC50 (MDA-MB-435 cells [5]) was 6.02 µM. For the same compound, the inhibition at 5 µM (AMPK (A1/B1/G1); 5 μM compound) was less than 20%, the inhibition at 50 µM (AMPK (A1/B1/G1); 50 μM compound) was greater than 50% and the inhibition at 5 µM (AKT1; 5 μM compound) was less than 20%. It also gave an inhibition at 50 µM (AKT1; 50 μM compound) of less than 20%, an inhibition at 5 µM (CLK4; 5 μM compound) greater than 50% and an inhibition at 50 µM (CLK4; 50 μM compound) greater than 50%. It also gave an inhibition at 5 µM (GSK3 β; 5 μM compound) of less than 20%, an inhibition at 50 µM (GSK3 β; 50 μM compound) greater than 50% and an inhibition at 5 µM (IKK α; 5 μM compound) of less than 20%. For the same compound, the inhibition at 50 µM (IKK α; 50 μM compound) was less than 20%, the inhibition at 5 µM (IKK β; 5 μM compound) was less than 20% and the inhibition at 50 µM (IKK β; 50 μM compound) was 31 to 50%. The inhibition at 5 µM (JAK2; 5 μM compound) was less than 20%, the inhibition at 50 µM (JAK2; 50 μM compound) was greater than 50% and the inhibition at 5 µM (JAK3; 5 μM compound) was less than 20%. For the same compound, the inhibition at 50 µM (JAK3; 50 μM compound) was 20 to 30%, the inhibition at 5 µM (LCK; 5 μM compound) was less than 20% and the inhibition at 50 µM (LCK; 50 μM compound) was 31 to 50%. For the same compound, the inhibition at 5 µM (SYK; 5 μM compound) was less than 20%, the inhibition at 50 µM (SYK; 50 μM compound) was less than 20% and the inhibition at 5 µM (p38 α; 5 μM compound) was less than 20%. The inhibition at 50 µM (p38 α; 50 μM compound) was greater than 50%, the inhibition at 5 µM (p38 β; 5 μM compound) was less than 20% and the inhibition at 50 µM (p38 β; 50 μM compound) was 20 to 30%. The inhibition at 0.2 µM [3, 8] was 15 to 30%, the inhibition at 20 µM [3, 8] was greater than 50% and the “disease activity index (DAI) (cumulative scores of body weight, stool consistency and rectal bleeding)” value ([6]; 10 mg/kg oral gavage) was 17.4+12.0. The “disease activity index (DAI) (cumulative scores of body weight, stool consistency and rectal bleeding)” value ([6]; 30 mg/kg oral gavage) was 15.4+4.9, the EC50 [7] was 0.027 µM and the “effect on production of ICAM-1” value (ICAM-1) was “suppress the production”. For the same compound, the “effect on production of IL-1α” value (IL-1α) was “suppress the production”, the “effect on production of IL-8” value (IL-8) was “suppress the production” and the “effect on production of VCAM-1” value (VCAM-1) was “suppress the production”.
